US4962113A, “Pyridinium derivatives, their production and use” (Takeda Chemical Industries, Ltd, priority 1987, dated 1990)
Read-outs that look alike come from different tables or passages of the source.

What was measured:
[1] = system: platelet aggregation (PAF); assay: Inhibitory action on PAF-induced rabbit platelet aggregation; format: cell-based; conditions: Oryctolagus cuniculus, read-out: inhibitory percentage (platelet aggregation); for inhibition at 3 µM: 3 × 10^-6 M; for inhibition at 0.3 µM: 3 × 10^-7 M; for inhibition at 0.03 µM: 3 × 10^-8 M
Protocol: Blood was collected directly from the hearts of male rabbits using a syringe containing, as an anticoagulant, 3.15% citric acid (one part to 9 parts of blood). The blood was subjected to centrifuge at 800 rpm for ten minutes at room temperature to obtain platelet rich plasma (PRP). The remaining blood was further subjected to centrifuge at 3000 rpm for ten minnutes to separate platelet poor plasma (PPP) as the supernatant. PRP was diluted with PPP, and the number of platelets was adjusted to about 500,000/ μl. This PRP(250 μl) was stirred for two minutes at 37° C., and there was added a test sample, and the mixture was stirred for further two minutes, followed by addition of PAF of a given concentration. Platelet aggregation was examined by means of a platelet-agglutometer (manufactured by Rika Denki). Platelet aggregation preventing action of the test sample was determined based on the maximum percent light transmission (maximum percent. agglutination).

PAF-induced hypotension = assay: Inhibitory action on PAF-induced hypotension in rats; format: in vivo, rat (Sprague-Dawley); conditions: Rattus norvegicus, read-out: Inhibitory Rate (Lowering of Blood Pressure); for inhibition in vivo at 1 mg/kg / inhibition in vivo at 3 mg/kg / inhibition in vivo at 10 mg/kg: oral; for inhibition in vivo at 0.1 mg/kg: iv
Protocol: Sprague-Dawley male rats, each weighing about 250 g, were subjected to the experiment. The rats were cannulated on the side of femoral artery for measuring the blood pressure, and on the side of femoral vein for administering the drug. The blood pressure was measured through a pressure transducer and recorded. First, PAF (1 μg/kg) was administered intravenously (i.v.) to examine the extent of lowering of blood pressure. Then, the test samples were administered intravenously or orally. […]
The inhibitory action on PAF-induced hypotension (% inhibition) is indicated as the ratio of blood pressure-lowering degree (Δ mmHg) induced by PAF after administration of test samples relative to blood pressure-lowering degree (Δ mmHg) induced by PAF before administration of test samples.

For `CCCCCCCCCCCCCCCCCCNC(=O)OCC(COC(=O)NCCN(C)C(=O)c1ccc[n+](CC)c1)OC` (centres unmarked) [Production Example 1, 3-[N-[2-(2-methoxy-3-octadecylcarbamoyloxypropoxycarbonyl)]aminoethyl-N-methyl]carbamoyl-1-ethylpyridinium iodide], the inhibition at 3 µM [1] was 100%, the inhibition at 0.3 µM [1] was 100% and the inhibition at 0.03 µM [1] was 9%.
Molecule `CCCCN(CCOC(=O)NCCOc1cccc2ccccc12)C(=O)c1cc(Br)c[n+](CC)c1` [Production Example 19, 5-bromo-1-ethyl-3-[N-butyl-N-[2-[2-(1-naphthyloxy)ethyl]carbamoyloxy]ethyl]carbamoylpyridinium iodide] has an inhibition at 3 µM [1] of 100%, an inhibition at 0.3 µM [1] of 100% and an inhibition at 0.03 µM [1] of 42%.
`CCC[n+]1cc(Br)cc(C(=O)N(CCOC(=O)NCCCOC(=O)Nc2cccc3ccccc23)c2ccccc2)c1` [Production Example 52, 5-bromo-3-[N-2-[3-(1-naphthylcarbamoyloxy)propyl]carbamoyloxy]ethyl-N-phenyl]carbamoyl-1-propyl pyridinium chloride] was tested, and the inhibition in vivo at 1 mg/kg (PAF-induced hypotension; 1 hr.) was 30%, the inhibition in vivo at 1 mg/kg (PAF-induced hypotension; 2 hr.) was 47% and the inhibition in vivo at 1 mg/kg (PAF-induced hypotension; 4 hr.) was 37%. The inhibition in vivo at 1 mg/kg (PAF-induced hypotension; 6 hr.) was 51%, the inhibition in vivo at 1 mg/kg (PAF-induced hypotension; 8 hr.) was 31% and the inhibition in vivo at 3 mg/kg (PAF-induced hypotension; 1 hr.) was 87%. The inhibition in vivo at 3 mg/kg (PAF-induced hypotension; 2 hr.) was 92%, the inhibition in vivo at 3 mg/kg (PAF-induced hypotension; 4 hr.) was 89% and the inhibition in vivo at 3 mg/kg (PAF-induced hypotension; 6 hr.) was 88%. The inhibition in vivo at 3 mg/kg (PAF-induced hypotension; 8 hr.) was 81%, the inhibition in vivo at 10 mg/kg (PAF-induced hypotension; 1 hr.) was 92% and the inhibition in vivo at 10 mg/kg (PAF-induced hypotension; 2 hr.) was 95%. The inhibition in vivo at 10 mg/kg (PAF-induced hypotension; 4 hr.) was 98%, the inhibition in vivo at 10 mg/kg (PAF-induced hypotension; 6 hr.) was 96% and the inhibition in vivo at 10 mg/kg (PAF-induced hypotension; 8 hr.) was 95%. It also gave an inhibition at 3 µM [1] of 100%, an inhibition at 0.3 µM [1] of 100% and an inhibition at 0.03 µM [1] of 27%.
`CCC[n+]1cc(Br)cc(C(=O)N(CCC(=O)NCCNS(=O)(=O)c2ccc3ccccc3c2)c2ccccc2)c1` [Production Example 98, 5-Bromo-3-[N-[2-[2-(2-naphthylsulfonamidoethyl]carbamoyl]ethyl-N-phenyl]carbamoyl-1-propylpyridinium chloride] was tested, and the inhibition in vivo at 1 mg/kg (PAF-induced hypotension; 1 hr.) was 70%, the inhibition in vivo at 1 mg/kg (PAF-induced hypotension; 2 hr.) was 74% and the inhibition in vivo at 1 mg/kg (PAF-induced hypotension; 4 hr.) was 74%. The inhibition in vivo at 1 mg/kg (PAF-induced hypotension; 6 hr.) was 70%, the inhibition in vivo at 1 mg/kg (PAF-induced hypotension; 8 hr.) was 69% and the inhibition in vivo at 3 mg/kg (PAF-induced hypotension; 1 hr.) was 87%. It also gave an inhibition in vivo at 3 mg/kg (PAF-induced hypotension; 2 hr.) of 91%, an inhibition in vivo at 3 mg/kg (PAF-induced hypotension; 4 hr.) of 93% and an inhibition in vivo at 3 mg/kg (PAF-induced hypotension; 6 hr.) of 93%. The inhibition in vivo at 3 mg/kg (PAF-induced hypotension; 8 hr.) was 89%, the inhibition at 3 µM [1] was 100% and the inhibition at 0.3 µM [1] was 100%. The inhibition at 0.03 µM [1] was 16%.
In the case of `CCC[n+]1cc(Br)cc(C(=O)N(CCOC(=O)NCCOC(=O)Nc2cccc3ccccc23)c2ccc(I)cc2)c1` [Production Example 25, 5-bromo-3-[N-(4-iodophenyl)-N-[2-[2-(1-naphthylcarbamoyloxy)ethyl]carbamoyloxy]ethyl]carbamoyl-1-propylpyridinium chloride], the inhibition at 3 µM [1] is reported as 100%, the inhibition at 0.3 µM [1] is reported as 100% and the inhibition at 0.03 µM [1] is reported as 18%.
For `CCC[n+]1cc(Br)cc(C(=O)N(CCC(=O)NCCNC(=O)c2cccc3ccccc23)c2ccccc2)c1` [Production Example 108, 5-Bromo-3-[N-[2-[2-(1-naphthoylamino)ethyl]carbamoyl]ethyl-N-phenyl]carbamoyl-1-propylpyridinium chloride], the inhibition in vivo at 0.1 mg/kg (PAF-induced hypotension; 1 hr.) was 100%, the inhibition in vivo at 0.1 mg/kg (PAF-induced hypotension; 2 hr.) was 97% and the inhibition in vivo at 0.1 mg/kg (PAF-induced hypotension; 4 hr.) was 75%. The inhibition in vivo at 0.1 mg/kg (PAF-induced hypotension; 6 hr.) was 58%, the inhibition in vivo at 0.1 mg/kg (PAF-induced hypotension; 8 hr.) was 45% and the inhibition in vivo at 0.1 mg/kg (PAF-induced hypotension; 5 min, i.v., 5 min.) was 100%. The inhibition in vivo at 1 mg/kg (PAF-induced hypotension; 1 hr.) was 64%, the inhibition in vivo at 1 mg/kg (PAF-induced hypotension; 2 hr.) was 61% and the inhibition in vivo at 1 mg/kg (PAF-induced hypotension; 4 hr.) was 55%. For the same molecule, the inhibition in vivo at 1 mg/kg (PAF-induced hypotension; 6 hr.) was 51%, the inhibition in vivo at 1 mg/kg (PAF-induced hypotension; 8 hr.) was 42% and the inhibition in vivo at 3 mg/kg (PAF-induced hypotension; 1 hr.) was 92%. It also gave an inhibition in vivo at 3 mg/kg (PAF-induced hypotension; 2 hr.) of 86%, an inhibition in vivo at 3 mg/kg (PAF-induced hypotension; 4 hr.) of 94% and an inhibition in vivo at 3 mg/kg (PAF-induced hypotension; 6 hr.) of 94%. For the same molecule, the inhibition in vivo at 3 mg/kg (PAF-induced hypotension; 8 hr.) was 72%, the inhibition at 3 µM [1] was 100% and the inhibition at 0.3 µM [1] was 37%. The inhibition at 0.03 µM [1] was 5%.
Molecule `CC[n+]1cc(Br)cc(C(=O)N(CCOC(=O)NCCOc2cccc3ccccc23)c2ccccc2)c1` [Production Example 6, 5-bromo-3-[N-[2-[2-(1-naphthyloxy)ethyl]carbamoyloxy]ethyl-N-phenyl]carbamoyl-1-ethylpyridinium iodide] has an inhibition at 3 µM [1] of 100%, an inhibition at 0.3 µM [1] of 100% and an inhibition at 0.03 µM [1] of 34%.
`CCC[n+]1cc(Br)cc(C(=O)N(CCOC(=O)NCCOC(=O)Nc2cccc3ccccc23)c2cc(OC)c(OC)c(OC)c2)c1` [Production Example 27, 5-bromo-3-[N-[2-[2-(1-naphthylcarbamoyloxy)ethyl]carbamoyloxy]ethyl-N-(3,4,5-trimethoxyphenyl)]carbamoyl-1-propylpyridinium chloride] was tested, and the inhibition at 3 µM [1] was 100%, the inhibition at 0.3 µM [1] was 100% and the inhibition at 0.03 µM [1] was 3%.
Molecule `CCC[n+]1cc(Br)cc(C(=O)N(CCOC(=O)NCCOC(=O)Nc2cccc3ccccc23)c2ccc(Cl)cc2)c1` [Production Example 22, 5-bromo-3-[N-(4-chlorophenyl)-N-[2-[2-(1-naphthylcarbamoyloxy)ethyl]carbamoyloxy]ethyl]carbamoyl-1-propylpyridinium chloride] has an inhibition at 3 µM [1] of 100%, an inhibition at 0.3 µM [1] of 100% and an inhibition at 0.03 µM [1] of 11%.
`CCN(CCOC(=O)NCCOc1cccc2ccccc12)C(=O)c1cc(Br)c[n+](CC)c1` [Production Example 15, 5-bromo-1-ethyl-3-[N-ethyl-N-[2-[2-(1-naphthyloxy)ethyl]carbamoyloxy]ethyl]carbamoylpyridinium iodide] showed an inhibition at 3 µM [1] of 100%, an inhibition at 0.3 µM [1] of 100% and an inhibition at 0.03 µM [1] of 22%.
